Reference: ChEMBL document CHEMBL6177981, “Bardoxolone Derivatives as Novel Pseudo-Natural Necroptosis Inhibitors by Destabilizing HSP90 Client Proteins” (J Med Chem, 2025)
Activity calls are given as the source filed them. No cut-off for these calls is given here.

Key:
[1] = test system: L929; test: Anti-necroptotic activity in TZ-induced mouse L929 cells assessed as increase in cell viability preincubated with Z-VAD-FMK followed by mTNFalpha stimulation for 4 hrs and measured after compound addition by CellTiter-Lumi luminescent cell viability assay; assay type: functional, cell-based
[2] = test system: HT-29; test: Anti-necroptotic activity in TSZ-induced human HT-29 cells assessed as increase in cell viability preincubated with Z-VAD-FMK and SM164 for 30 mins followed by TNFalpha stimulation for 12 hrs and measured after compound addition by CellTiter-Lumi luminescent cell viability assay; assay type: functional, cell-based
[3] = biological target: T1, Receptor-interacting serine/threonine-protein kinase 1 (Homo sapiens) (UniProt Q13546); test: Inhibition of RIPK1 phosphorylation at S166 residue in TSZ-induced human HT-29 cells at 10 uM preincubated with compound followed by Z-VAD-FMK, SM164 and TNFalpha stimulation and measured after 6 hrs by Western blot analysis; assay type: cell-based
T1 sequence (whole entry): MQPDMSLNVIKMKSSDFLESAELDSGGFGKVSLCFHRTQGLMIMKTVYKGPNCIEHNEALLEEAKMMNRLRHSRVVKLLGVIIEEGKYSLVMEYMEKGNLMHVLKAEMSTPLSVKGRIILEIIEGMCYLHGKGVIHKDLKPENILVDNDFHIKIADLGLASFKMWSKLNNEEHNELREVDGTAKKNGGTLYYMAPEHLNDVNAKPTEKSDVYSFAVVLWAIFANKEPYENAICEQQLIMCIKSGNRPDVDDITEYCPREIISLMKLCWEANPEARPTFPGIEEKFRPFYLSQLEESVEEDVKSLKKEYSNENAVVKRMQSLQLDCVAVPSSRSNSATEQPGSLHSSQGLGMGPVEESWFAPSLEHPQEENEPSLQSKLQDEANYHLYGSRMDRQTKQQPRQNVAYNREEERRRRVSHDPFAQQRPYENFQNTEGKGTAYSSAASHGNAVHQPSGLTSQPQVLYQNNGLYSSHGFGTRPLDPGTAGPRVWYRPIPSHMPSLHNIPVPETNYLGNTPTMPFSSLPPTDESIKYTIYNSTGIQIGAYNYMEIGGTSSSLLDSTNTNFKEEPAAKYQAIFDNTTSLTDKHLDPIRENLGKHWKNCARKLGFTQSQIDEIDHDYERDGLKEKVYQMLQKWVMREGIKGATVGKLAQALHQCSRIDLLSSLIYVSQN

[4] = biological target: Receptor-interacting serine/threonine-protein kinase 3 (Homo sapiens) (UniProt Q9Y572); test: Inhibition of RIPK3 phosphorylation at S227 residue in TSZ-induced human HT-29 cells at 10 uM preincubated with compound followed by Z-VAD-FMK, SM164 and TNFalpha stimulation and measured after 6 hrs by Western blot analysis; assay type: cell-based
[5] = test system: L929; test: Anti-necroptotic activity in TZ-induced mouse L929 cells assessed as protection against cell death at 10 uM measured within 5 hrs by Live-cell super-resolution panoramic microscopic analysis; assay type: functional, cell-based
[6] = biological target: Heat shock protein HSP90 (Homo sapiens) (UniProt P07900+P08238); test: Inhibition of HSP90 in TSZ-induced human HT-29 cells assessed as reduction in EGFR protein level at 10 uM preincubated with compound followed by Z-VAD-FMK, SM164 and TNFalpha stimulation and measured after 6 hrs by Western blot analysis; assay type: cell-based
[7] = biological target: T2, Mixed lineage kinase domain-like protein (Homo sapiens) (UniProt Q8NB16); test: Inhibition of MLKL phosphorylation at S358 residue in TSZ-induced human HT-29 cells at 10 uM preincubated with compound followed by Z-VAD-FMK, SM164 and TNFalpha stimulation and measured after 6 hrs by Western blot analysis; assay type: cell-based
T2 sequence (whole entry): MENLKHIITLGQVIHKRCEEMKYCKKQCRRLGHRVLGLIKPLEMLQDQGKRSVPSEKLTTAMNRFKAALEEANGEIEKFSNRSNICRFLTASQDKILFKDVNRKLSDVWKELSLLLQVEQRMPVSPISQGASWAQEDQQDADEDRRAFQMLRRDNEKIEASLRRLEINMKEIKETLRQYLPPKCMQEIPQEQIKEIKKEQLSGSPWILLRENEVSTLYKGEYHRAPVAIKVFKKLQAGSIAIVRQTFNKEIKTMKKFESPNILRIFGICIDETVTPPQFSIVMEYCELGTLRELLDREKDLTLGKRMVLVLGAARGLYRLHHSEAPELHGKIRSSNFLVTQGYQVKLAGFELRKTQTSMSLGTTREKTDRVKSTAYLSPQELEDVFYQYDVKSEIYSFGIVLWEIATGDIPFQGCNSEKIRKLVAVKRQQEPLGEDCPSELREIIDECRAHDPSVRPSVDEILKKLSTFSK

[8] = test system: HT-29; test: Effect on RIPK3 protein level in human HT-29 cells at 10 microg/ml incubated for 9 hrs by Western blot analysis; assay type: functional, cell-based; settings: dose 10.0 µg/ml
[9] = test system: HT-29; test: Effect on MLKL protein level in human HT-29 cells at 10 microg/ml incubated for 9 hrs by Western blot analysis; assay type: functional, cell-based; settings: dose 10.0 µg/ml
[10] = test system: HT-29; test: Effect on RIPK1 protein level in human HT-29 cells at 10 microg/ml incubated for 9 hrs by Western blot analysis; assay type: functional, cell-based; settings: dose 10.0 µg/ml
[11] = test system: RAW264.7; test: Anti-necroptotic activity in LZ-induced mouse RAW264.7 cells assessed as increase in cell viability preincubated with compound followed by LPS and Z-VAD-FMK stimulation and measured after 16 hrs by CellTiter-Lumi luminescent cell viability assay; assay type: functional, cell-based

Sequence of Receptor-interacting serine/threonine-protein kinase 3 (Homo sapiens) (Q9Y572 whole entry, looked up): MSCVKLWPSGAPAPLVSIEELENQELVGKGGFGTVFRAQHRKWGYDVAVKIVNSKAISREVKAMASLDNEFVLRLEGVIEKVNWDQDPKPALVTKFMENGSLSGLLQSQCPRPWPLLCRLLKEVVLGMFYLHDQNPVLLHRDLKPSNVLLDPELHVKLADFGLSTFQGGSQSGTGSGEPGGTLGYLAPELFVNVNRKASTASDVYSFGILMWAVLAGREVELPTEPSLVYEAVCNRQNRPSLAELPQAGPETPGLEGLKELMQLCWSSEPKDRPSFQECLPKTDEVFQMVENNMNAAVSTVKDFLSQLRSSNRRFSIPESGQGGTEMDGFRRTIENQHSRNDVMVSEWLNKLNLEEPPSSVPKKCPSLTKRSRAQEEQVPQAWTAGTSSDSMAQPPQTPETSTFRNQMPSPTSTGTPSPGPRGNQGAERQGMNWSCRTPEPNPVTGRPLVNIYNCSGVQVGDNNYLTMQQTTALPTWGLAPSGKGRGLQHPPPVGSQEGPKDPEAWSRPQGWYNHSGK

SMILES | EC50 [1] [µM] | EC50 [2] [µM] | also measured
Cn1c(NC(=O)[C@]23CCC(C)(C)C[C@H]2[C@H]2C(=O)C=C4[C@@]5(C)C=C(C#N)C(=O)C(C)(C)[C@@H]5CC[C@@]4(C)[C@]2(C)CC3)nc2ccccc21 | > 10 | 3.97 | –
CC1(C)CC[C@]2(C(=O)N3CCc4ccccc43)CC[C@]3(C)[C@H](C(=O)C=C4[C@@]5(C)C=C(C#N)C(=O)C(C)(C)[C@@H]5CC[C@]43C)[C@@H]2C1 | > 10 | > 10 | –
CC1(C)CC[C@]2(C(=O)O)CC[C@]3(C)[C@H](C(=O)C=C4[C@@]5(C)C=C(C#N)C(=O)C(C)(C)[C@@H]5CC[C@]43C)[C@@H]2C1 [BARDOXOLONE] | > 10 | 2.52 | inhibition [3]: inactive; inhibition [4]: inactive; Activity [5]: inactive; inhibition [6]: Active; inhibition [7]: inactive
CC1(C)CC[C@]2(C(=O)Nc3ccc4sccc4c3)CC[C@]3(C)[C@H](C(=O)C=C4[C@@]5(C)C=C(C#N)C(=O)C(C)(C)[C@@H]5CC[C@]43C)[C@@H]2C1 | > 10 | 4.85 | –
C[C@@H]1C[C@@H]([C@H](O)CC2CC(=O)NC(=O)C2)C(=O)[C@@H](C)C1 | – | – | Activity [8]: inactive; Activity [9]: inactive; Activity [10]: inactive
CC1(C)CC[C@]2(C(=O)O)[C@H](O)C[C@]3(C)C(=CC[C@@H]4[C@@]5(C)CC[C@H](O)C(C)(C)[C@@H]5CC[C@]43C)[C@@H]2C1 | > 10 | > 10 | –
CC1(C)CC[C@]2(C(=O)Nc3cnc4ccccc4n3)CC[C@]3(C)[C@H](C(=O)C=C4[C@@]5(C)C=C(C#N)C(=O)C(C)(C)[C@@H]5CC[C@]43C)[C@@H]2C1 | > 10 | 2.39 | –
COC(=O)[C@]12CCC(C)(C)C[C@H]1[C@H]1C(=O)C=C3[C@@]4(C)C5C(C(=O)C(C)(C)[C@@H]4CC[C@@]3(C)[C@]1(C)CC2)N5CC#N (some centres not stated) | > 10 | > 10 | –
CC1(C)CC[C@]2(C(=O)Nc3ccc4ncoc4c3)CC[C@]3(C)[C@H](C(=O)C=C4[C@@]5(C)C=C(C#N)C(=O)C(C)(C)[C@@H]5CC[C@]43C)[C@@H]2C1 | 2.84 | 2 | Activity [11]: Dose-dependent-effect
CC1(C)CC[C@]2(C(=O)N3CCC(c4ccccc4)C3)CC[C@]3(C)[C@H](C(=O)C=C4[C@@]5(C)C=C(C#N)C(=O)C(C)(C)[C@@H]5CC[C@]43C)[C@@H]2C1 (some centres not stated) | > 10 | 3.81 | –
CC1(C)CC[C@]2(C(=O)Nc3ccc4scnc4c3)CC[C@]3(C)[C@H](C(=O)C=C4[C@@]5(C)C=C(C#N)C(=O)C(C)(C)[C@@H]5CC[C@]43C)[C@@H]2C1 | 4.01 | 1.38 | Activity [11]: Dose-dependent-effect
CC1(C)CC[C@]2(C(=O)N3Cc4ccccc4C3)CC[C@]3(C)[C@H](C(=O)C=C4[C@@]5(C)C=C(C#N)C(=O)C(C)(C)[C@@H]5CC[C@]43C)[C@@H]2C1 | > 10 | 1.65 | –
CC1(C)CC[C@]2(C(=O)Nc3ccc4[nH]ccc4c3)CC[C@]3(C)[C@H](C(=O)C=C4[C@@]5(C)C=C(C#N)C(=O)C(C)(C)[C@@H]5CC[C@]43C)[C@@H]2C1 | > 10 | 4.08 | –
CC1(C)CC[C@]2(C(=O)Nc3nsc4ccccc34)CC[C@]3(C)[C@H](C(=O)C=C4[C@@]5(C)C=C(C#N)C(=O)C(C)(C)[C@@H]5CC[C@]43C)[C@@H]2C1 | > 10 | 3.96 | –
CC1(C)CC[C@]2(C(=O)n3ncc4ccccc43)CC[C@]3(C)[C@H](C(=O)C=C4[C@@]5(C)C=C(C#N)C(=O)C(C)(C)[C@@H]5CC[C@]43C)[C@@H]2C1 | > 10 | > 10 | –
CC1(C)CC[C@]2(C(=O)n3cnc4ccccc43)CC[C@]3(C)[C@H](C(=O)C=C4[C@@]5(C)C=C(C#N)C(=O)C(C)(C)[C@@H]5CC[C@]43C)[C@@H]2C1 | > 10 | 2.35 | –
CC1(C)CC[C@]2(C(=O)O)CC[C@]3(C)C(=CC[C@@H]4[C@@]5(C)CC[C@H](O)C(C)(C)[C@@H]5CC[C@]43C)[C@@H]2C1 [OLEANOLIC_ACID] | > 10 | > 10 | –
CC1(C)CC[C@]2(C(=O)Nc3ccc4ccccc4c3)CC[C@]3(C)[C@H](C(=O)C=C4[C@@]5(C)C=C(C#N)C(=O)C(C)(C)[C@@H]5CC[C@]43C)[C@@H]2C1 | > 10 | 9.56 | –
CC1(C)CC[C@]2(C(=O)Nc3ccc4occc4c3)CC[C@]3(C)[C@H](C(=O)C=C4[C@@]5(C)C=C(C#N)C(=O)C(C)(C)[C@@H]5CC[C@]43C)[C@@H]2C1 | > 10 | 1.32 | –
CC1(C)CC[C@]2(C(=O)Nc3ccc4oncc4c3)CC[C@]3(C)[C@H](C(=O)C=C4[C@@]5(C)C=C(C#N)C(=O)C(C)(C)[C@@H]5CC[C@]43C)[C@@H]2C1 | > 10 | 3.28 | –
CC1(C)CC[C@]2(C(=O)Nc3ccc4sncc4c3)CC[C@]3(C)[C@H](C(=O)C=C4[C@@]5(C)C=C(C#N)C(=O)C(C)(C)[C@@H]5CC[C@]43C)[C@@H]2C1 | > 10 | 2.35 | –
CC1(C)CC[C@]2(C(=O)NC3(c4ccccc4)CC3)CC[C@]3(C)[C@H](C(=O)C=C4[C@@]5(C)C=C(C#N)C(=O)C(C)(C)[C@@H]5CC[C@]43C)[C@@H]2C1 | 4.8 | 2.09 | Activity [11]: Dose-dependent-effect
CC1(C)CC[C@]2(C(=O)n3nnc4ccccc43)CC[C@]3(C)[C@H](C(=O)C=C4[C@@]5(C)C=C(C#N)C(=O)C(C)(C)[C@@H]5CC[C@]43C)[C@@H]2C1 | > 10 | 9.98 | –
CC1(C)CC[C@]2(C(=O)N3CCC(c4ccccc4)CC3)CC[C@]3(C)[C@H](C(=O)C=C4[C@@]5(C)C=C(C#N)C(=O)C(C)(C)[C@@H]5CC[C@]43C)[C@@H]2C1 | > 10 | 5.8 | –
CC1(C)CC[C@]2(C(=O)Nc3ccc4c(c3)OCO4)CC[C@]3(C)[C@H](C(=O)C=C4[C@@]5(C)C=C(C#N)C(=O)C(C)(C)[C@@H]5CC[C@]43C)[C@@H]2C1 | > 10 | 0.89 | –
CC1(C)CC[C@]2(C(=O)Nc3nc4ccccc4s3)CC[C@]3(C)[C@H](C(=O)C=C4[C@@]5(C)C=C(C#N)C(=O)C(C)(C)[C@@H]5CC[C@]43C)[C@@H]2C1 | > 10 | 3.8 | –
CC1(C)CC[C@]2(C(=O)Nc3ccc4ncsc4c3)CC[C@]3(C)[C@H](C(=O)C=C4[C@@]5(C)C=C(C#N)C(=O)C(C)(C)[C@@H]5CC[C@]43C)[C@@H]2C1 | > 10 | 3.56 | –
COC(=O)[C@]12CCC(C)(C)C[C@H]1[C@H]1C(=O)C=C3[C@@]4(C)C5NC5C(=O)C(C)(C)[C@@H]4CC[C@@]3(C)[C@]1(C)CC2 (some centres not stated) | > 10 | > 10 | –
CC1(C)CC[C@]2(C(=O)O)CC[C@]3(C)[C@H](C(=O)C=C4[C@@]5(C)C=C(C(N)=O)C(=O)C(C)(C)[C@@H]5CC[C@]43C)[C@@H]2C1 | > 10 | 2.2 | –
